Reference: patent US4525473A, “Cephalosporins” (Bristol-Myers Company, priority 1983, dated 1985)
Converted amounts (≈) assume the structure as drawn. Like-named read-outs stand apart in the source and are kept apart here.

Key:
Assay type in all cases: cell-based
P. aeruginosa = assay: MIC by two-fold serial agar dilution in Mueller-Hinton agar, Gn-III; conditions: for MIC: Pseudomonas aeruginosa, read-out: Geometric Mean of MIC
Description: (§1) In the primary evaluation of the compounds of this invention, the Minimum Inhibitory Concentrations (MIC's) of the compounds were determined by the two-fold serial agar dilution method in Mueller-Hinton agar against 32 strains of test organisms in six groups.

[1] = system: M. morganii (1), E. cloacae (2) and S. marcescens (2); assay: MIC by two-fold serial agar dilution in Mueller-Hinton agar, Gn-II; conditions: read-out: Geometric Mean of MIC
Description: as §1
GnII: M. morganii (1), E. cloacae (2) and S. marcescens (2)

[2] = system: CETresistant E. coli (3) and K. pneumoniae (2); assay: MIC by two-fold serial agar dilution in Mueller-Hinton agar, Gn-Ib; conditions: Escherichia coli, read-out: Geometric Mean of MIC
Description: as §1
GnIb: CETresistant E. coli (3) and K. pneumoniae (2)

PCresistant S. aureus = assay: MIC by two-fold serial agar dilution in Mueller-Hinton agar, Gp-Ib; conditions: for MIC: Staphylococcus aureus, read-out: Geometric Mean of MIC
Description: as §1
GpIb: PCresistant S. aureus

[3] = system: Cephalothin(CET)sensitive E. coli (2 strains), K. pneumoniae (1) and P. mirabilis (2); assay: MIC by two-fold serial agar dilution in Mueller-Hinton agar, Gn-Ia; conditions: for MIC: read-out: Geometric Mean of MIC
Description: as §1
GnIa: Cephalothin(CET)sensitive E. coli (2 strains), K. pneumoniae (1) an […]

[4] = system: Penicillin(PC)sensitive S. aureus; assay: MIC by two-fold serial agar dilution in Mueller-Hinton agar, Gp-Ia; conditions: for MIC: Staphylococcus aureus
Description: as §1
Gp-Ia: Penicillin(PC)sensitive S. aureus

[5] = Gn-III, 7 strains, P. aeruginosa
[6] = Gp-Ib, 5 strains, PC-resistant S. aureus
[7] = Gn-Ia, 5 strains, CET-sensitive
[8] = read-out: Geometric Mean of MIC, Gp-Ia, 5 strains, PC-sensitive S. aureus
[9] = Gn-Ib, 5 strains, CET-resistant
[10] = Gp-Ia, 5 strains, PC-sensitive S. aureus, read-out: Geometric Mean of MIC

Structure (SMILES) | MIC (P. aeruginosa; [5]) | MIC ([1]; Gn-II, 5 strains) | MIC [2] | MIC (PCresistant S. aureus; [6]) | MIC [3, 7] | MIC [4, 8] | Geometric Mean of MIC (P. aeruginosa; [5]) | MIC [1] | Geometric Mean of MIC (PCresistant S. aureus; [6]) | Geometric Mean of MIC [3, 7] | Geometric Mean of MIC ([4]; Gp-Ia, 5 strains, PC-sensitive S. aureus) | MIC (P. aeruginosa) | MIC [2, 9] | MIC [4, 10] | MIC (PCresistant S. aureus) | MIC [3]
CO/N=C(\C(=O)NC1C(=O)N2C(C(=O)[O-])=C(C[N+]3(C)CCc4nc(N)sc4C3)CSC12)c1csc(N)n1 (stereo not drawn) [Example 15, 7-[(Z)-2-(2-Aminothiazol-4-yl)-2-methoxyiminoacetamido]-3-[(2-amino-4,5,7-tetrahydro-6-methyl-6-thiazolo[5,4-c]pyridinio)methyl]-3-cephem-4-carboxylate] | 4.6 µg/mL (≈ 8.15 µM) | 0.18 µg/mL (≈ 0.319 µM) | 0.16 µg/mL (≈ 0.283 µM) | 2.8 µg/mL (≈ 4.96 µM) | 0.034 µg/mL (≈ 0.0602 µM) | 1.1 µg/mL (≈ 1.95 µM) | – | – | – | – | – | – | – | – | – | –
CO/N=C(\C(=O)NC1C(=O)N2C(C(=O)[O-])=C(C[N+]3(C)CCC[C@H]3C(N)=O)CSC12)c1csc(N)n1 (single isomer, unassigned) [8 Isomer B] | – | – | 0.2 µg/mL (≈ 0.382 µM) | – | – | – | 7.2 µg/mL | 0.23 µg/mL (≈ 0.439 µM) | 4.1 µg/mL | 0.057 µg/mL | 1.6 µg/mL | – | – | – | – | –
CO/N=C(\C(=O)NC1C(=O)N2C(C(=O)[O-])=C(C[N+]3(C)CCN(C)CC3)CS[C@H]12)c1csc(N)n1 (stereo partly drawn) [Example 5, 7-[(Z)-2-(2-Aminothiazol-4-yl)-2-methoxyiminoacetamido]-3-(1,4-dimethyl-1-piperazinio)methyl-3-cephem-4-carboxylate] | – | 0.78 µg/mL (≈ 1.53 µM) | – | 4.7 µg/mL (≈ 9.22 µM) | 0.057 µg/mL (≈ 0.112 µM) | – | – | – | – | – | – | 3.6 µg/mL (≈ 7.06 µM) | 0.12 µg/mL (≈ 0.235 µM) | 2.3 µg/mL (≈ 4.51 µM) | – | –
CO/N=C(\C(=O)NC1C(=O)N2C(C(=O)[O-])=C(C[N+]3(C)CCOCC3)CS[C@H]12)c1csc(N)n1 (stereo partly drawn) [Example 2, 7-[(Z)-2-(2-Aminothiazol-4-yl)-2-methoxyiminoacetamido]-3-(4-methyl-4-morpholinio)methyl-3-cephem-4-carboxylate] | 4 µg/mL (≈ 8.06 µM) | 0.96 µg/mL (≈ 1.93 µM) | 0.22 µg/mL (≈ 0.443 µM) | 5 µg/mL (≈ 10.1 µM) | 0.061 µg/mL (≈ 0.123 µM) | – | – | – | – | – | – | – | – | 1.7 µg/mL (≈ 3.42 µM) | – | –
CC[N+]1(CC2=C(C(=O)[O-])N3C(=O)C(NC(=O)/C(=N\OC)c4csc(N)n4)[C@H]3SC2)CCCC1 (stereo partly drawn) [Example 10, 7-[(Z)-2-(2-Aminothiazol-4-yl)-2-methoxyiminoacetamido]-3-(1-ethylpyrrolidinio)methyl-3-cephem-4-carboxylate] | 3.1 µg/mL (≈ 6.27 µM) | 0.13 µg/mL (≈ 0.263 µM) | – | – | – | 1 µg/mL (≈ 2.02 µM) | – | – | – | – | – | – | 0.13 µg/mL (≈ 0.263 µM) | – | 2 µg/mL (≈ 4.04 µM) | 0.037 µg/mL (≈ 0.0748 µM)
CO/N=C(\C(=O)NC1C(=O)N2C(C(=O)[O-])=C(C[N+]3(C)CCSCC3)CS[C@H]12)c1csc(N)n1 (stereo partly drawn) [Example 20, 7-[(Z)-2-(2-Aminothiazol-4-yl)-2-methoxyiminoacetamido]-3-(4-methylthiomorpholinio)methyl-3-cephem-4-carboxylate] | 3.7 µg/mL (≈ 7.22 µM) | 0.25 µg/mL (≈ 0.488 µM) | – | 4.1 µg/mL (≈ 8 µM) | 0.064 µg/mL (≈ 0.125 µM) | – | – | – | – | – | – | – | 0.25 µg/mL (≈ 0.488 µM) | 1.2 µg/mL (≈ 2.34 µM) | – | –
CO/N=C(\C(=O)NC1C(=O)N2C(C(=O)[O-])=C(C[N+]34CCN(CC3)CC4)CS[C@H]12)c1csc(N)n1 (stereo partly drawn) [Example 4, 7-[(Z)-2-(2-Aminothiazol-4-yl)-2-methoxyiminoacetamido]-3-(1,4-diazabicyclo[2,2,2]octan-1-io)methyl-3-cephem-4-carboxylate] | – | – | 0.16 µg/mL (≈ 0.315 µM) | 5.8 µg/mL (≈ 11.4 µM) | 0.07 µg/mL (≈ 0.138 µM) | – | – | 0.8 µg/mL (≈ 1.58 µM) | – | – | – | 3.6 µg/mL (≈ 7.09 µM) | – | 2.9 µg/mL (≈ 5.71 µM) | – | –
CO/N=C(\C(=O)NC1C(=O)N2C(C(=O)[O-])=C(C[N+]3(C)CC=CC3)CS[C@H]12)c1csc(N)n1 (stereo partly drawn) [Example 11, 7-[(Z)-2-(2-Aminothiazol-4-yl)-2-methoxyiminoacetamido]-3-(1-methyl-3-pyrrolinio)methyl-3-cephem-4-carboxylate] | – | 0.15 µg/mL (≈ 0.313 µM) | 0.17 µg/mL (≈ 0.355 µM) | 2.1 µg/mL (≈ 4.39 µM) | 0.019 µg/mL (≈ 0.0397 µM) | – | – | – | – | – | – | 2.5 µg/mL (≈ 5.22 µM) | – | 0.78 µg/mL (≈ 1.63 µM) | – | –
CO/N=C(\C(=O)NC1C(=O)N2C(C(=O)[O-])=C(C[N+]3(C)CCC[C@H]3C(N)=O)CSC12)c1csc(N)n1 (single isomer, unassigned) [8 Isomer A] | 11 µg/mL (≈ 21 µM) | 0.35 µg/mL (≈ 0.668 µM) | – | 4.7 µg/mL (≈ 8.98 µM) | 0.098 µg/mL (≈ 0.187 µM) | – | – | – | – | – | – | – | 0.39 µg/mL (≈ 0.745 µM) | 2.1 µg/mL (≈ 4.01 µM) | – | –
